Measured values published in patent US12209261B2, “Media for the expression of recombinant vitamin K-dependent proteins” (CSL Behring Lengnau AG, priority 2015, dated 2025).

Columns and labels:
[1] = system: recombinant human Factor VII fusion protein; experiment: Recombinant Factor VII chromogenic activity in culture supernatants (COASET Factor VII kit); type: cell-based; details: for effect on chromogenic activity of FVII: supernatant at days 7, 9 and 10; for impact on yield and/or activity of FVII: summary in description, supplement present in cell culture medium during FVII expression, FIGS. 1B-8C
Procedure: (§1) Chinese Hamster Ovary cell line that expresses recombinant human Factor VII fusion protein was created using the GS expression system (Lonza). These cells were maintained in commercially available CD-CHO AGT medium (Invitrogen) supplemented with 50 μg/L reduced menadione sodium bisulfite (rMSB) (Richman), 25 μM methionine sulfoximine (MSX) (Sigma) and 1 mg/L insulin (Novo Nordisk). Cells were grown in shake flasks maintained at 37° C. with 8% CO2 atmosphere and subcultured every 3 days to 3×10^5 cells/mL.
Cells from the exponential growth phase of the cultures (at the end of regular 3-day passages) were used for the experiments. The cells were centrifuged, appropriate amount of spent media removed and cell pellets were resuspended in remaining spent media to a cell concentration of 3×10^6 cells/mL. 50 μL of this cell suspension was used to inoculate each well of a polypropylene V-bottom square 96-deepwell plate (Corning) containing 450 μL of a cell culture media based on DMEM/F12 supplemented with different levels of reduced L-glutathione (Sigma). […] All cultures contained 213 μg/L rMSB to support appropriate cellular processing of Factor VII. All liquid handling steps were performed using a Tecan Freedom EVO® 200 robotic platform.
(§2) Culture plates were sealed with a breathable membrane (Corning) to maintain sterility and cultures were maintained at 37° C. with 8% CO2 atmosphere in a shaker incubator (Kuhner) operating at 350 rpm with an oribital diameter of 25 mm.
Recombinant Factor VII chromogenic activity in the cultures were determined from serially diluted supernatant samples obtained at days 7, 9 and 10 (counted from inoculation of the culture) using a commercially available chromogenic kit COASET Factor VII kit (Chromogenix). The assay was adapted for use with the SYSMEX® CS-5100 automated hemostasis analyzer (Siemens Healthcare) and performed according to manufacturers' instructions.
Cells from the exponential growth phase of the cultures (at the end of regular 3-day passages) were used for the experiments. The cells were centrifuged, appropriate amount of spent media removed and cell pellets were resuspended in remaining spent media to a cell concentration of 3×10^6 cells/mL. 50 μL of this cell suspension was used to inoculate each well of a polypropylene V-bottom square 96-deepwell plate (Corning) containing 450 μL of a cell culture media based on DMEM/F12 supplemented with different levels of alpha-ketoglutaric acid (Sigma), malic acid (Sigma), succinic acid (Sigma), oxaloacetic acid (Sigma), fumaric acid (Sigma), citric acid (Sigma) or sodium pyruvate (Sigma). […]
Recombinant Factor VII chromogenic activity in the cultures was determined as described for Example 1.

[2] = system: CHO cells expressing FVII; experiment: Determination of cell growth and viability (viable cell density, flow cytometry with propidium iodide); type: cell-based, Chinese Hamster; details: for impact on viable cell density (VCD): summary in description, supplement present in cell culture medium, FIGS. 1A-8A
Procedure: as §1
Cells from the exponential growth phase of the cultures (at the end of regular 3-day passages) were used for the experiments. The cells were centrifuged, appropriate amount of spent media removed and cell pellets were resuspended in remaining spent media to a cell concentration of 3×10^6 cells/mL. 50 μL of this cell suspension was used to inoculate each well of a polypropylene V-bottom square 96-deepwell plate (Corning) containing 450 μL of a cell culture media based on DMEM/F12 supplemented with different levels of reduced L-glutathione (Sigma). The reduced L-glutathione concentration ranges tested were 0.01-15 mM with a corresponding reduced L-glutathione-free negative control. All cultures contained 213 μg/L rMSB to support appropriate cellular processing of Factor VII. All liquid handling steps were performed using a Tecan Freedom EVO® 200 robotic platform.
as §2
The cell density and viability in the culture were determined offline from a sample of culture obtained at day 5 and day 7 (counted from inoculation of the culture) using a MACSQuant® Analyzer 10 flow cytometer (Miltenyi Biotec), utilizing propidium iodide (Miltenyi Biotec) for viability staining. […]
The cell density and viability were determined as described for Example 1.

Row | Structure (SMILES) | effect on chromogenic activity of FVII ([1]; Example 2, TCA intermediates 0.06-60 mM, sodium pyruvate 0.01-10 mM, FIGS. 2B-8C) | impact on yield and/or activity of FVII [1] | impact on viable cell density (VCD) [2] | effect on chromogenic activity of FVII ([1]; Example 1, reduced L-glutathione 0.01-15 mM, FIGS. 1B and 1C) | effect on viable cell density ([2]; Example 1, reduced L-glutathione 0.01-15 mM in DMEM/F12-based medium, day 5 and day 7, at most concentrations tested, FIG. 1A)
1 | CC(=O)C(=O)[O-].[Na+] [Sodium pyruvate, sodium pyruvate, reference compound] | no effect on the chromogenic activity of FVII | no impact on yield and/or activity of FVII | only minor impact on the viable cell density | – | –
2 | N[C@@H](CCC(=O)N[C@@H](CS)C(=O)NCC(=O)O)C(=O)O [L-glutathione, (2S)-2-amino-5-[[(2R)-1-(carboxymethylamino)-1-oxo-3-sulfanylpropan-2-yl]amino]-5-oxopentanoic acid] | – | enhances yield and/or activity of FVII | only minor impact on the viable cell density | increases chromogenic activity of FVII | no effect on the viable cell density
